From US12336986B2, “Treatment and prevention of ocular neurodegenerative disorder” (The Jackson Laboratory, priority 2015, dated 2025)

Experiments:
sciatic nerve axons = conditions: blocking NAMPT; cited from earlier work
zebrafish = conditions: two-photon-laser axotomy; cited from earlier work
D2 mice = conditions: topical administration; cited from earlier work
[1] = system: ganglion cell layer cells (GCL cells); experiment: Whole retina explant culture (axotomy culture model), DAPI nuclei; format: cell-based, mouse
Description: Mice were euthanized, eyes enucleated and placed immediately into ice-cold HBSS. Retinas were dissected from the eyes in HBSS on ice, flat-mounted with the ganglion cell layer up on a cell culture insert (Millipore), and submerged in tissue culture media containing Neurobasal-A, 1% penicillin-streptomycin (10000 U/mL), 1% glutamine (100×), 1% N-2 (100×) and 1% B-27 (50×) (all ThermoFisher Scientific).
For drug treated retinas tissue culture media was made as above and supplemented with one of the following compounds (all Sigma unless otherwise): β-NAD, NAM (PanReac AppliChem), β-NMN. Retinas were incubated in 6-well plates at 37° C. and 4% CO2 for 5 days before being fixed in 4% PFA and stained with DAPI. (For untreated “Day 0” controls, retinas were dissected and placed straight into 4% PFA.) Retinas were imaged on a Zeiss AxioObserver.

PQQ tolerability in mice = format: in vivo, mouse
[2] = survey of 6000 patients on high doses; cited from earlier work
dorsal root ganglion = conditions: U.S. Pat. No. 7,776,326; cited from earlier work
[3] = axotomized retinas in culture, 5 days

For O=C(/C=C/c1cccnc1)NCCCCC1CCN(C(=O)c2ccccc2)CC1 [FK866], the “axon degeneration following axonal injury” value (sciatic nerve axons) is listed as “potentially inhibits this axon degeneration” and the axon degeneration (zebrafish) is listed as “potently delayed axon degeneration”.

In the case of CC(C)OC(=O)CCC/C=C\C[C@@H]1[C@@H](CC[C@@H](O)CCc2ccccc2)[C@H](O)C[C@@H]1O [Latanoprost], the IOP (D2 mice) is given as “lowers IOP” and the “risk of developing neurodegeneration” value (D2 mice) is given as “reduces the risk of developing neurodegeneration”.

With O=C(O)c1cc(C(=O)O)c2c(n1)C(=O)C(=O)c1cc(C(=O)O)[nH]c1-2 [PQQ, pyrroloquinoline quinone] the “nuclear diameter shrinkage (DAPI-labeled nuclei)” value ([1]; axotomized D2 retinas in culture, 5 days post-axotomy, NAM 100 mM and 500 mM) was “prevents”, the “ganglion cell layer cell death / cell density” value [1, 3] was “prevents” and the “protective effect in retina tissue culture” value [1, 3] was “protective in retina tissue culture”. The tolerated dose (PQQ tolerability in mice) was ≥ 2,000 mg/kg/day.

In the case of CC12CC3CC(C)(C1)CC(N)(C3)C2 [memantine], the IOP (D2 mice) is given as “lowers IOP” and the “risk of developing neurodegeneration” value (D2 mice) is given as “reduces the risk of developing neurodegeneration”.

In the case of O=C(O)c1cccnc1 [nicotinic acid], the “cases of jaundice reported” value [2] is given as 3 and the “axonal degeneration after axotomy” value (dorsal root ganglion) is given as “did not work to diminish axonal degeneration”.

For CC(C)(C)NC[C@H](O)COc1nsnc1N1CCOCC1 [timolol], the IOP (D2 mice) is listed as “lowers IOP” and the “risk of developing neurodegeneration” value (D2 mice) is listed as “reduces the risk of developing neurodegeneration”.

For NC(=O)c1ccc[n+]([C@@H]2O[C@H](COP(=O)([O-])O)[C@@H](O)[C@H]2O)c1 [β-NMN, nicotinamide mononucleotide], the “protective effect in retina tissue culture” value [1, 3] was “significant protective effects”.
